Source: the NIST ThermoML archive (doi:10.1016/j.fluid.2015.04.017)
± gives the expanded uncertainty stated by the source.

Assay: xn = mol fraction of the nth substance listed
Conditions: 101 kPa, Liquid; for viscosity: Concentric cylinders viscometry; for mass density: Vibrating tube method

Compound `CCOC(=O)C(C)O` (stereo not drawn) [DL-ethyl lactate] + CCC(C)=O has a viscosity (308.15 K, x1 = 0.0999) of 0.4211 ± 0.0059 mPa·s, a viscosity (308.15 K, x1 = 0.1999) of 0.4939 ± 0.0065 mPa·s and a viscosity (308.15 K, x1 = 0.3001) of 0.5848 ± 0.0073 mPa·s. It also gave a viscosity (308.15 K, x1 = 0.4001) of 0.6909 ± 0.0082 mPa·s, a viscosity (308.15 K, x1 = 0.5) of 0.8175 ± 0.0093 mPa·s and a viscosity (308.15 K, x1 = 0.5998) of 0.9624 ± 0.011 mPa·s. For the same compound, the viscosity (308.15 K, x1 = 0.6999) was 1.138 ± 0.012 mPa·s, the viscosity (308.15 K, x1 = 0.8) was 1.345 ± 0.014 mPa·s and the viscosity (308.15 K, x1 = 0.9001) was 1.595 ± 0.017 mPa·s. The viscosity (308.15 K, x1 = 1) was 1.858 ± 0.02 mPa·s, the mass density (308.15 K, x1 = 0.0999) was 818.947 ± 0.15 kg/m3 and the mass density (308.15 K, x1 = 0.1999) was 847.072 ± 0.15 kg/m3. For the same compound, the mass density (308.15 K, x1 = 0.3001) was 873.449 ± 0.15 kg/m3, the mass density (308.15 K, x1 = 0.4001) was 898.112 ± 0.16 kg/m3 and the mass density (308.15 K, x1 = 0.5) was 921.146 ± 0.16 kg/m3. For the same compound, the mass density (308.15 K, x1 = 0.5998) was 942.923 ± 0.17 kg/m3, the mass density (308.15 K, x1 = 0.6999) was 963.714 ± 0.18 kg/m3 and the mass density (308.15 K, x1 = 0.8) was 983.356 ± 0.2 kg/m3. It also gave a mass density (308.15 K, x1 = 0.9001) of 1001.5 ± 0.21 kg/m3, a mass density (308.15 K, x1 = 1) of 1017.42 ± 0.24 kg/m3 and a viscosity (313.15 K, x1 = 0.0999) of 0.4001 ± 0.0058 mPa·s. The viscosity (313.15 K, x1 = 0.1999) was 0.4671 ± 0.0063 mPa·s, the viscosity (313.15 K, x1 = 0.3001) was 0.5492 ± 0.007 mPa·s and the viscosity (313.15 K, x1 = 0.4001) was 0.6463 ± 0.0078 mPa·s. For the same compound, the viscosity (313.15 K, x1 = 0.5) was 0.7602 ± 0.0088 mPa·s, the viscosity (313.15 K, x1 = 0.5998) was 0.8883 ± 0.01 mPa·s and the viscosity (313.15 K, x1 = 0.6999) was 1.042 ± 0.011 mPa·s. It also gave a viscosity (313.15 K, x1 = 0.8) of 1.222 ± 0.013 mPa·s, a viscosity (313.15 K, x1 = 0.9001) of 1.436 ± 0.015 mPa·s and a viscosity (313.15 K, x1 = 1) of 1.658 ± 0.018 mPa·s. It also gave a mass density (313.15 K, x1 = 0.0999) of 813.582 ± 0.15 kg/m3, a mass density (313.15 K, x1 = 0.1999) of 841.677 ± 0.15 kg/m3 and a mass density (313.15 K, x1 = 0.3001) of 868.027 ± 0.15 kg/m3. It also gave a mass density (313.15 K, x1 = 0.4001) of 892.67 ± 0.16 kg/m3, a mass density (313.15 K, x1 = 0.5) of 915.688 ± 0.16 kg/m3 and a mass density (313.15 K, x1 = 0.5998) of 937.45 ± 0.17 kg/m3. For the same compound, the mass density (313.15 K, x1 = 0.6999) was 958.226 ± 0.18 kg/m3, the mass density (313.15 K, x1 = 0.8) was 977.854 ± 0.2 kg/m3 and the mass density (313.15 K, x1 = 0.9001) was 995.984 ± 0.21 kg/m3. It also gave a mass density (313.15 K, x1 = 1) of 1011.9 ± 0.24 kg/m3, a viscosity (318.15 K, x1 = 0.0999) of 0.3798 ± 0.0056 mPa·s and a viscosity (318.15 K, x1 = 0.1999) of 0.4415 ± 0.0061 mPa·s. It also gave a viscosity (318.15 K, x1 = 0.3001) of 0.5165 ± 0.0067 mPa·s, a viscosity (318.15 K, x1 = 0.4001) of 0.6052 ± 0.0075 mPa·s and a viscosity (318.15 K, x1 = 0.5) of 0.709 ± 0.0084 mPa·s. The viscosity (318.15 K, x1 = 0.5998) was 0.8229 ± 0.0094 mPa·s, the viscosity (318.15 K, x1 = 0.6999) was 0.9589 ± 0.011 mPa·s and the viscosity (318.15 K, x1 = 0.8) was 1.116 ± 0.012 mPa·s. The viscosity (318.15 K, x1 = 0.9001) was 1.3 ± 0.014 mPa·s, the viscosity (318.15 K, x1 = 1) was 1.491 ± 0.016 mPa·s and the mass density (318.15 K, x1 = 0.0999) was 808.184 ± 0.16 kg/m3. The mass density (318.15 K, x1 = 0.1999) was 836.25 ± 0.16 kg/m3, the mass density (318.15 K, x1 = 0.3001) was 862.576 ± 0.16 kg/m3 and the mass density (318.15 K, x1 = 0.4001) was 887.197 ± 0.16 kg/m3. It also gave a mass density (318.15 K, x1 = 0.5) of 910.198 ± 0.17 kg/m3, a mass density (318.15 K, x1 = 0.5998) of 931.944 ± 0.17 kg/m3 and a mass density (318.15 K, x1 = 0.6999) of 952.707 ± 0.18 kg/m3. The mass density (318.15 K, x1 = 0.8) was 972.323 ± 0.2 kg/m3, the mass density (318.15 K, x1 = 0.9001) was 990.445 ± 0.21 kg/m3 and the mass density (318.15 K, x1 = 1) was 1006.36 ± 0.23 kg/m3. It also gave a viscosity (323.15 K, x1 = 0.0999) of 0.3598 ± 0.0055 mPa·s, a viscosity (323.15 K, x1 = 0.1999) of 0.4212 ± 0.0059 mPa·s and a viscosity (323.15 K, x1 = 0.3001) of 0.4897 ± 0.0065 mPa·s. The viscosity (323.15 K, x1 = 0.4001) was 0.5699 ± 0.0072 mPa·s, the viscosity (323.15 K, x1 = 0.5) was 0.6649 ± 0.008 mPa·s and the viscosity (323.15 K, x1 = 0.5998) was 0.7673 ± 0.0089 mPa·s. For the same compound, the viscosity (323.15 K, x1 = 0.6999) was 0.8872 ± 0.01 mPa·s, the viscosity (323.15 K, x1 = 0.8) was 1.028 ± 0.011 mPa·s and the viscosity (323.15 K, x1 = 0.9001) was 1.193 ± 0.013 mPa·s. It also gave a viscosity (323.15 K, x1 = 1) of 1.349 ± 0.015 mPa·s, a mass density (323.15 K, x1 = 0.0999) of 802.753 ± 0.16 kg/m3 and a mass density (323.15 K, x1 = 0.1999) of 830.788 ± 0.16 kg/m3. The mass density (323.15 K, x1 = 0.3001) was 857.09 ± 0.16 kg/m3, the mass density (323.15 K, x1 = 0.4001) was 881.694 ± 0.16 kg/m3 and the mass density (323.15 K, x1 = 0.5) was 904.683 ± 0.17 kg/m3. For the same compound, the mass density (323.15 K, x1 = 0.5998) was 926.419 ± 0.17 kg/m3, the mass density (323.15 K, x1 = 0.6999) was 947.168 ± 0.18 kg/m3 and the mass density (323.15 K, x1 = 0.8) was 966.77 ± 0.2 kg/m3. It also gave a mass density (323.15 K, x1 = 0.9001) of 984.879 ± 0.21 kg/m3 and a mass density (323.15 K, x1 = 1) of 1000.79 ± 0.23 kg/m3.
